# Counter-ions that a name gives are not always drawn.
# What was measured:
# [1] = target: T1, α1D-AR (Ovis aries, UniProt A0ACI6RHM3); assay: functional antagonism (KB) of phenylephrine-induced contraction in isolated arteries
# T1 construct: gene ADRA1D
# T1 sequence (A0ACI6RHM3 1-564): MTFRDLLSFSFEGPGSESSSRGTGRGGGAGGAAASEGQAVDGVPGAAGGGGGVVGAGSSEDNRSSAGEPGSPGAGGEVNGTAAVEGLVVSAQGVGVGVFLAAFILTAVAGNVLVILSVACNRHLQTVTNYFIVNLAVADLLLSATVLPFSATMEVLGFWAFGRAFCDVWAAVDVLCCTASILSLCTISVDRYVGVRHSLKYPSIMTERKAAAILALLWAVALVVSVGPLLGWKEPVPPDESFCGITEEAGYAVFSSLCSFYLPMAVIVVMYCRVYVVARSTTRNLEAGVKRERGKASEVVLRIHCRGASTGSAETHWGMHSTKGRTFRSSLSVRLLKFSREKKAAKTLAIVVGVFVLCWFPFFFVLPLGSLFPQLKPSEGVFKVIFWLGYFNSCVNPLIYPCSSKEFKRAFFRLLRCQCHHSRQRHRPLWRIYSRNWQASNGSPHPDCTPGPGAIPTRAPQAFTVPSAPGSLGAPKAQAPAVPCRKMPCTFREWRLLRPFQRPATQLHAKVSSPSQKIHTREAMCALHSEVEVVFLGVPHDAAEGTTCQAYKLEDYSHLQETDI
# [2] = target: T2, α1A-AR (Ovis aries, UniProt A0ACI6NWI5); assay: as above
# T2 construct: gene ADRA1A
# T2 sequence (A0ACI6NWI5 1-466): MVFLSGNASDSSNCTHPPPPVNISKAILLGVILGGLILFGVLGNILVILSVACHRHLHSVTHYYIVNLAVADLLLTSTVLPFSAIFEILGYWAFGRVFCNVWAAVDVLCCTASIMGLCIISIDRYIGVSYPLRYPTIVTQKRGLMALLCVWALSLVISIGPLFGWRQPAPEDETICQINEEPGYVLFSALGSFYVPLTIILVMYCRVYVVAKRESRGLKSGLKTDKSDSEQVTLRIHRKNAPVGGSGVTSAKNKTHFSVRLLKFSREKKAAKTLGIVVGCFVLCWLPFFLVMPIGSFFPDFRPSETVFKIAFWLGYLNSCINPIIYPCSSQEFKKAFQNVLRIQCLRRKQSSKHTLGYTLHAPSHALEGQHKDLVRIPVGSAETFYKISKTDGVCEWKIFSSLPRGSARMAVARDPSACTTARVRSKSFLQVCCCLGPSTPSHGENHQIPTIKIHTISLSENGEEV
Kb [1],Kb [2],SMILES
6.7 nM,,"COc1ccccc1N1CCN(CCN2C(=O)CC3(CCCC3)CC2=O)CC1 [BMY, 8-(2-[4-(2-Methoxyphenyl)-1-piperazinyl]ethyl)-8-azaspiro(4.5)decane-7,9-dione]"
,11 nM,"COc1cccc(OC)c1OCCNCC1COc2ccccc2O1 (centres unmarked) [WB, 2-([2,6-Dimethoxyphenoxyethyl]a-minomethyl)-1,4-benzodioxane hydrochloride]"
